# Results taken from patent US20100028259A1, “USE OF ORGANIC CATION TRANSPORTERS FOR CANCER DIAGNOSIS AND THERAPY” (The Regents of the University of California, priority 2006, published 2010).
# Read-outs that look alike come from different tables or passages of the source.
# What was measured:
# [1] = test system: MDCK-MOCK cells; test: Platinum-DNA adduct formation in MDCK-MOCK cells; assay type: cell-based, canine; details: 1 μM, PB—SO4, 25 min
# Experimental: (§1) After incubation at 37° C. and 5% CO2 for 2 hours, the cells were washed with ice-cold PBS three times and harvested. The genomic DNA was isolated from the cells and the platinum content associated with DNA was determined by ICP-MS and normalized for DNA content. Data are expressed as mean±SD from a typical experiment performed in triplicate. Two independent experiments were conducted and similar results were obtained.
# (§2) After incubation, the cells were washed with ice-cold PBS three times and harvested. Genomic DNA was isolated from the harvested cells and the DNA-associated platinum content was determined by ICP-MS and normalized for the DNA content. Data are expressed as mean±SD of three measurements.
# (§3) The platinum content associated with genomic DNA was determined as described in Samimi et al., Clin. Cancer Res., 10:4661-4669 (2004) with some modifications. Briefly, the cells were grown in 100 mm×20 mm dishes in the culture medium without any antibiotics to over 90% confluence. For HEK 293 cells, poly-D-lysine coated dishes were used. Then, the cells were incubated in the culture medium containing the specified concentrations of the platinum-based compounds at 37° C. in 5% CO2 for 2 hours (or 25 min as specified). In some experiments, phosphate buffer (PB: 1.06 mM KH2PO4, 2.97 mM Na2HPO4, pH 7.4) containing 155 mM NaCl (PB—Cl buffer) or 103 mM Na2SO4 (PB—SO4 buffer) was used instead of the culture medium as specified. For the OCT inhibitor study, the incubation medium (buffer) also contained disopyramide or cimetidine). If PB—Cl or PB—SO4 buffer was used, the cells were washed with the same buffer once before drug incubation. After incubation, the cells were washed with ice-cold PBS, scraped, and pelleted. Genomic DNA was isolated from the cell pellets using the Wizard® Genomic DNA Purification Kit (Promega, Madison, Wis.) following the manufacturer's instructions. Briefly, the cells were lysed with Nuclei Lysis Solution. After RNA digestion and protein precipitation, the lysates were centrifuged and the resulting supernatant was aliquoted. The genomic DNA prepared from two different aliquots of the supernatant was used for platinum and DNA content determination, respectively. For the determination of platinum, the DNA samples were treated with 70% nitric acid at 65° C. and diluted in the same way as described above. The platinum content was analyzed using ICP-MS and the DNA content was measured by absorption spectroscopy.
# [2] = test system: MDCK-hOCT1 cells; test: Platinum-DNA adduct formation in MDCK-hOCT1 cells; assay type: cell-based, canine; details: 1 μM, PB—SO4, 25 min
# Experimental: as §1, §2, §3
# [3] = pKa values and species distribution of aquated oxaliplatin in incubation buffer; assay type: physicochemical; details: PB—SO4 buffer, pH 7.4, calculated from pKa values
# [4] = test system: MDCK-MOCK cells; test: MTT drug sensitivity assay in MDCK-MOCK cells; assay type: cell-based, canine; details: read-out: IC50 MDCK-MOCK
# Experimental: (§4) Cytotoxicity of the platinum-based compounds was measured by MTT (thiazolyl blue tetrazolium bromide) assay. Cells were seeded in 100 μl of the culture medium without any antibiotics in 96-well plates at a predetermined cell density. For HEK 293 cells, poly-D-lysine coated plates were used. After overnight incubation, the platinum-based compounds were then added to the culture medium to give the indicated final concentrations. For the OCT inhibitor studies, the inhibitors (i.e., disopyramide or cimetidine) were added to the medium at a specified concentration immediately before the addition of the platinum-based compounds. After incubation for a specified time period, the drug-containing medium was replaced with fresh, drug-free medium and the incubation was continued for a total of 72 hours (start from the addition of platinum-based compounds). Then, the MTT assay was performed similarly as described in Alley et al., Cancer Res., 48:589-601 (1988). […] The maximal cell growth was the cell growth in the medium without any platinum-based compounds; C is the concentration of the platinum-based compound, and γ is the slope factor.
# (§5) Briefly, the cells were seeded in 96-well plates at a density of 5,000 cells/well for the transfected MDCK cells or 12,000 cells/well for the transfected HEK 293 cells. The platinum-based drugs were added on the following day. After the specified time periods of drug exposure, the drug-containing medium was replaced with fresh, drug-free medium, and the incubation was continued for a total of 72 hours (start from the time when the drug was added). After incubation, the cell growth was determined by an MTT assay. Data are expressed as mean±SD from 3 to 6 independent experiments with each performed in quadruplicate. The resistance factor (RF) was defined as the ratio of the mean IC50 value in the MOCK cells to that in the OCT-transfected cells.
# (§6) Briefly, MDCK cells were seeded at a density of 5,000 cells/well in 96-well plates and exposed to the test compounds for 7 hours on the following day. After incubation for a total of 72 hours, the cell growth was determined by an MTT assay. The data for carboplatin was taken from Table 1 and was not determined simultaneously with the other compounds. The resistance factor (RF) was defined as the ratio of the mean IC50 value in MDCK-MOCK cells to that in MDCK-hOCT1 cells. Data are expressed as mean±SD from six measurements, and each measurement was performed in quadruplicate.
# [5] = test system: MDCK-hOCT1 cells; test: MTT drug sensitivity assay in MDCK-hOCT1 cells; assay type: cell-based, canine; details: read-out: IC50 MDCK-hOCT1
# Experimental: as §4, with “After overnight incubation, the platinum-based compounds were then added to the culture medium to give the indicated final concentrations.” left out
# as §5, §6
# [6] = test system: HCT116; test: MTT drug sensitivity, colon cancer cell line HCT116; assay type: cell-based, human
# Experimental: as §4, with “After overnight incubation, the platinum-based compounds were then added to the culture medium to give the indicated final concentrations.” left out
# (§7) The cell seeding density was 6,000-, 8,000-, 6,000-, 15,000-12,000- and 4,000 cells/well for HCT116, HT29, RKO, SW620, LS180, and DLD cells, respectively. When cimetidine (1.5 mM) was used, it was added to the wells immediately before the addition of the platinum-based drugs. The resistance factor (RF) was defined as the ratio of the mean IC50 value in the presence to that in the absence of cimetidine. Data are expressed as mean±SD from six measurements, and each measurement was performed in quadruplicate.
# [7] = test system: HEK-hOCT2 cells; test: MTT drug sensitivity assay in HEK-hOCT2 cells; assay type: cell-based, human; details: drug exposure 7 hour; read-out: IC50 HEK-hOCT2
# Experimental: as §4, with “After overnight incubation, the platinum-based compounds were then added to the culture medium to give the indicated final concentrations.” left out
# as §5
# [8] = test system: DLD; test: MTT drug sensitivity, colon cancer cell line DLD; assay type: cell-based, human
# Experimental: as §4, with “After overnight incubation, the platinum-based compounds were then added to the culture medium to give the indicated final concentrations.” left out
# as §7
# [9] = test system: HEK-hOCT3 cells; test: MTT drug sensitivity assay in HEK-hOCT3 cells; assay type: cell-based, human; details: drug exposure 7 hour
# Experimental: as §4, with “After overnight incubation, the platinum-based compounds were then added to the culture medium to give the indicated final concentrations.” left out
# as §5
# [10] = test system: HT29; test: MTT drug sensitivity, colon cancer cell line HT29; assay type: cell-based, human
# Experimental: as §4, with “After overnight incubation, the platinum-based compounds were then added to the culture medium to give the indicated final concentrations.” left out
# as §7
# [11] = test system: HEK-MOCK cells; test: MTT drug sensitivity assay in HEK-MOCK cells (control of HEK-hOCT2); assay type: cell-based, human; details: drug exposure 7 hour; Table 2; read-out: IC50 HEK-MOCK
# Experimental: as §4, §5
# [12] = test system: LS180; test: MTT drug sensitivity, colon cancer cell line LS180; assay type: cell-based, human
# Experimental: as §4, with “After overnight incubation, the platinum-based compounds were then added to the culture medium to give the indicated final concentrations.” left out
# as §7
# [13] = test system: RKO; test: MTT drug sensitivity, colon cancer cell line RKO; assay type: cell-based, human
# Experimental: as §4, with “After overnight incubation, the platinum-based compounds were then added to the culture medium to give the indicated final concentrations.” left out
# as §7
# [14] = test system: SW620; test: MTT drug sensitivity, colon cancer cell line SW620; assay type: cell-based, human
# Experimental: as §4, with “After overnight incubation, the platinum-based compounds were then added to the culture medium to give the indicated final concentrations.” left out
# as §7
# [15] = test system: HEK-MOCK cells; test: MTT drug sensitivity assay in HEK-MOCK cells (control of HEK-hOCT3); assay type: cell-based, human; details: drug exposure 7 hour; Table 3
# Experimental: as §4, §5
# [16] = test system: six colon cancer cell lines; test: MTT drug sensitivity, summary over the six colon cancer cell lines; assay type: cell-based, human
# Experimental: as §4, with “After overnight incubation, the platinum-based compounds were then added to the culture medium to give the indicated final concentrations.” left out
# The resistance factor (RF) due to the presence of cimetidine was defined as the ratio of the IC50 value in the presence of cimetidine to that in the absence of cimetidine.
# as §7
# [17] = SAR study Table 4, 7 hours of drug exposure
# [18] = absence of cimetidine, read-out: IC50 Control
# [19] = cimetidine 1.5 mM, read-out: IC50 Cimetidine-treated
# [20] = drug exposure 7 hour, MTT at 72 hours, Table 1
compound,measurement,setting,value
"NC1CCCCC1N.O.O.[Pt+2] [[Pt(R,R-DACH)(H2O)2]^2+]",DNA-associated platinum level in MDCK-MOCK,[1],0.0142±0.0028 pmol/μg DNA
same,rb in MDCK-MOCK,[1],4.69±0.92×10^−6
same,DNA-associated platinum level in MDCK-hOCT1,[2],0.0139±0.0020 pmol/μg DNA
same,rb in MDCK-hOCT1,[2],4.59±0.66×10^−6
same,percentage of aqua/hydroxo species,[3],17.1%
same,percentage of diaqua species,[3],82.8%
N.NC1CCCCC1.[Cl][Pt][Cl] [cis-[Pt(NH3)(Cy)Cl2]],IC50,[4]; [17],1.42 ± 0.15 µM
same,IC50,[5]; [17],0.16 ± 0.03 µM
"[Pt(NH3)2(trans-1,2-(OCO)2C6H10)] [[Pt(NH3)2(trans-1,2-(OCO)2C6H10]]",IC50,[4]; [17],21.4 ± 2.94 µM
same,IC50,[5]; [17],10.8 ± 2.66 µM
N.N.[Cl][Pt][Cl] [cisplatin],IC50,"[6]; HCT116, absence of cimetidine, read-out: IC50 Control",5.42 ± 1.34 µM
same,IC50,"[6]; HCT116, cimetidine 1.5 mM, read-out: IC50 Cimetidine-treated",10.2 ± 3.23 µM
same,IC50,[7],1.32 ± 0.18 µM
same,IC50,[8]; [18],18.4 ± 7.58 µM
same,IC50,[8]; [19],32.3 ± 10.3 µM
same,IC50,[9],2.44 ± 0.71 µM
same,IC50,"[10]; HT29, absence of cimetidine, read-out: IC50 Control",12.4 ± 3.91 µM
same,IC50,"[10]; HT29, cimetidine 1.5 mM, read-out: IC50 Cimetidine-treated",30.8 ± 11 µM
same,IC50,[11],2.95 ± 0.23 µM
same,IC50,"[12]; LS180, absence of cimetidine, read-out: IC50 Control",5.72 ± 1.75 µM
same,IC50,"[12]; LS180, cimetidine 1.5 mM, read-out: IC50 Cimetidine-treated",8.27 ± 3.35 µM
same,IC50,[13]; [18],8.58 ± 2.38 µM
same,IC50,[13]; [19],12.5 ± 4.44 µM
same,IC50,[4]; [17],6.32 ± 0.74 µM
same,IC50,[4]; [20],19.6 ± 7.56 µM
same,IC50,"[14]; SW620, absence of cimetidine, read-out: IC50 Control",12.6 ± 1.95 µM
same,IC50,"[14]; SW620, cimetidine 1.5 mM, read-out: IC50 Cimetidine-treated",22.2 ± 4.92 µM
same,IC50,[15],2.83 ± 0.9 µM
same,IC50,"[16]; absence of cimetidine, read-out: mean±SE of IC50 in the six cell lines, control",10.5 ± 2.02 µM
same,IC50,"[16]; cimetidine 1.5 mM, read-out: mean±SE of IC50 in the six cell lines, in the presence of cimetidine",19.4 ± 4.32 µM
same,IC50,[5]; [17],3.58 ± 0.3 µM
same,IC50,[5]; [20],15.4 ± 2.84 µM
